Results from ChEMBL document CHEMBL5046256, “The discovery of potent small molecule cyclic urea activators of STING” (Eur J Med Chem, 2022).
Values belong to the compound of their own block, whether it stands above or below them. Activity calls are given as the source filed them. No cut-off for these calls is given here.

Columns and labels:
[1] = Agonist activity against human STING R232H variant transfected in HEK-293T cells co-expressing ISRE.ISG54 by luciferase reporter gene assay; type: cell-based; details: Homo sapiens, HEK-293T
[2] = tested on: HEK-293T; test: Agonist activity against human STING R232H variant transfected in HEK-293T cells co-expressing ISRE.ISG54 at 5 uM by luciferase reporter gene assay relative to control; type: cell-based
[3] = tested on: HEK-293T; test: Agonist activity against human STING R232H variant transfected in HEK-293T cells co-expressing ISRE.ISG54 at 1 uM by luciferase reporter gene assay relative to control; type: cell-based
[4] = target: T1, Stimulator of interferon genes protein (Homo sapiens, UniProt Q86WV6); test: Agonist activity against human STING Q variant expressed in HEK293T cells co-expressing ISRE.ISG54 incubated for 18 hrs by luciferase reporter gene assay; type: cell-based; details: hek-293t
[5] = AUC in Balb/c mouse at 25 mg/kg, po measured by LC-MS/MS analysis; type: ADME, organism-based; set-up: dose 25 mg/kg; details: in vivo
[6] = target: T1, Stimulator of interferon genes protein; test: Agonist activity against human STING HAQ variant expressed in THP-1 cells co-expressing ISRE.ISG54 incubated for 18 hrs by luciferase reporter gene assay; type: cell-based
[7] = tested on: Stimulator of interferon genes protein (Homo sapiens), Q86WV6 [UNDEFINED MUTATION]; test: Binding affinity to human STING R232 variant expressed in HEK-293T cells assessed as increase in thermal stability measured between 51 and 56 deg C at 10 uM for 2 hrs by cellular thermal shift assay; type: cell-based; details: filed as agonist
[8] = Half life in Balb/c mouse at 25 mg/kg, po measured by LC-MS/MS analysis; type: ADME, organism-based; details: in vivo
[9] = Cmax/C0 in monkey at 2.5 mg/kg, iv measured by LC-MS/MS analysis; type: ADME, organism-based, Macaca mulatta; set-up: route intravenous, dose 2.5 mg/kg; details: rhesus monkey, in vivo
[10] = tested on: PBMC; test: Effects of compound on IFN-alpha production in cynomolgus monkey PBMC cells assessed as increase in […] level at 10 uM and measured upto 24 hrs by ELISA; type: functional, cell-based; details: Macaca fascicularis
[11] = Half life in Balb/c mouse at 25 mg/kg, iv measured by LC-MS/MS analysis; type: ADME, organism-based; details: in vivo
[12] = Cmax/C0 in Balb/c mouse at 25 mg/kg, po measured by LC-MS/MS analysis; type: ADME, organism-based; set-up: route oral, dose 25 mg/kg; details: in vivo
[13] = Cmax/C0 in Balb/c mouse at 25 mg/kg, iv measured by LC-MS/MS analysis; type: ADME, organism-based; set-up: route intravenous, dose 25 mg/kg; details: in vivo
[14] = tested on: PBMC; test: Effect of compound on IRF3 phosphorylation in cynomolgus monkey PBMC cells at 10 uM for 2 hrs by immunoblotting; type: functional, cell-based; details: Macaca fascicularis
[15] = tested on: PBMC; test: Effects of compound on IFN-beta production in cynomolgus monkey PBMC cells assessed as increase in […] level at 10 uM and measured upto 24 hrs by ELISA; type: functional, cell-based; details: Macaca fascicularis
[16] = target: T1, Stimulator of interferon genes protein; test: Agonist activity against human STING AQ variant transfected in HEK-293T cells co-expressing ISRE.ISG54 incubated for 18 hrs by luciferase reporter gene assay; type: cell-based
[17] = AUC in Balb/c mouse at 25 mg/kg, iv measured by LC-MS/MS analysis; type: ADME, organism-based; set-up: dose 25 mg/kg; details: in vivo
[18] = Oral bioavailability in Balb/c mouse at 25 mg/kg measured by LC-MS/MS analysis; type: ADME, organism-based; details: in vivo
[19] = Half life in monkey at 2.5 mg/kg, iv measured by LC-MS/MS analysis; type: ADME, organism-based, Macaca mulatta; details: rhesus monkey, in vivo
[20] = target: T1, Stimulator of interferon genes protein; test: Agonist activity against human STING H232 variant transfected in HEK-293T cells co-expressing ISRE.ISG54 incubated for 18 hrs by luciferase reporter gene assay; type: cell-based
[21] = tested on: PBMC; test: Effect of compound on STING phosphorylation in cynomolgus monkey PBMC cells at 10 uM for 2 hrs by immunoblotting; type: functional, cell-based; details: Macaca fascicularis
[22] = AUC in monkey at 2.5 mg/kg, iv measured by LC-MS/MS analysis; type: ADME, organism-based, Macaca mulatta; set-up: dose 2.5 mg/kg; details: rhesus monkey, in vivo
[23] = target: T1, Stimulator of interferon genes protein; test: Agonist activity against human STING HAQ variant expressed in HEK-293T cells co-expressing ISRE.ISG54 incubated for 18 hrs by luciferase reporter gene assay; type: cell-based
[24] = tested on: PBMC; test: Effects of compound on IL-6 production in cynomolgus monkey PBMC cells assessed as increase in IL-6 level at 10 uM and measured upto 24 hrs by ELISA; type: functional, cell-based; details: Macaca fascicularis
[25] = Agonist activity against cynomolgus monkey STING expressed in HEK-293T cells co-expressing co-expressing ISRE.ISG54 by luciferase reporter gene assay; type: cell-based; details: Macaca fascicularis
[26] = tested on: HEK-293T; test: Agonist activity against human STING R232H variant transfected in HEK-293T cells co-expressing ISRE.ISG54 at 0.2 uM by luciferase reporter gene assay relative to control; type: cell-based; details: filed as agonist
[27] = tested on: HEK-293T; test: Agonist activity against human STING R232H variant transfected in HEK-293T cells co-expressing ISRE.ISG54 at 0.5 uM by luciferase reporter gene assay relative to control; type: cell-based

T1 sequence (Q86WV6 whole entry, looked up, stated change not applied): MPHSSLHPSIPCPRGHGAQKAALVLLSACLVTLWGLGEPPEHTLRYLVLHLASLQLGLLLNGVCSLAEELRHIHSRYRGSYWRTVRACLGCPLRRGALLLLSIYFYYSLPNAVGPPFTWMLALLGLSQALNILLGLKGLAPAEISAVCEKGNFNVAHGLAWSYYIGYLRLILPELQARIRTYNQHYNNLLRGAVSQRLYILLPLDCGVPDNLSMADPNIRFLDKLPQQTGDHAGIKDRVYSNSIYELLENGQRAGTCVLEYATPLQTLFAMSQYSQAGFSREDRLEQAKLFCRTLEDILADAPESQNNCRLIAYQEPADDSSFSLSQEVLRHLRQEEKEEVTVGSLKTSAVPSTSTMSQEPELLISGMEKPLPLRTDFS
Sequence of Stimulator of interferon genes protein (Homo sapiens), Q86WV6 [UNDEFINED MUTATION] (Q86WV6 whole entry, looked up, change not shown): as the sequence (Q86WV6 whole entry, looked up, stated change not applied) above

EC50 [1]: 403 nM
SMILES: Cc1ccc(Cl)c(CN2C(=O)N(C)Cc3ccc(C(=O)NCc4c(F)cc(F)cc4F)cc32)c1F
Activity ([2]; filed as agonist): 68%

SMILES: CC1c2ccc(C(=O)NCc3c(F)cc(F)cc3F)cc2N(Cc2cc(C(N)=O)ccc2F)C(=O)N1C (stereo not given)
Activity ([3]; filed as agonist): 71%

EC50 [4]: 90 nM
AUC [5]: 4850 ng·h/mL
EC50 [6]: 341 nM
EC50 [1]: 18 nM
Activity [7]: Active
half-life [8]: 96 min
Cmax [9]: 5220 ng/mL
half-life [11]: 84 min
Cmax [12]: 2480 ng/mL
Cmax [13]: 20100 ng/mL
EC50 [16]: 83 nM
AUC [17]: 10900 ng·h/mL
bioavailability [18]: 44%
half-life [19]: 426 min
EC50 [20]: 59 nM
AUC [22]: 8050 ng·h/mL
EC50 [23]: 26 nM
EC50 [25]: 99 nM
SMILES: C[C@H]1c2ccc(C(=O)NCc3c(F)cc(F)cc3F)cc2N(Cc2c(F)cccc2Cl)C(=O)N1C
Activity [10]: Active
Activity [14]: Active
Activity [15]: Active
Activity [21]: Active
Activity [24]: Active

SMILES: CN1Cc2ccc(C(=O)NCc3c(F)cc(F)cc3F)cc2N(Cc2c(F)cccc2C#N)C1=O
Activity [3]: 15%

SMILES: CC1c2ccc(C(=O)NCc3c(F)cc(F)cc3F)cc2N(Cc2cc(F)cc(F)c2)C(=O)N1C (racemic)
Activity [26]: 81%

SMILES: CN1Cc2ccc(C(=O)NCc3ccccc3F)cc2N(Cc2c(F)cccc2Cl)C1=O
Activity [3]: 34%

SMILES: Cc1cc(CN2C(=O)N(C)C(C)c3ccc(C(=O)NCc4c(F)cc(F)cc4F)cc32)c(F)cn1 (stereo not given)
Activity ([27]; filed as agonist): 64%

SMILES: CC1c2ccc(C(=O)NCc3c(F)cc(F)cc3F)cc2N(Cc2c(F)cccc2F)C(=O)N1C (racemic)
Activity ([3]; filed as agonist): 64%

SMILES: CC1c2ccc(C(=O)NCc3c(F)cc(F)cc3F)cc2N(Cc2ccc(Cl)cc2F)C(=O)N1C (stereo not given)
Activity ([3]; filed as agonist): 65%

SMILES: Cc1cc(CN2C(=O)N(C)Cc3ccc(C(=O)NCc4c(F)cc(F)cc4F)cc32)on1
Activity [3]: 12%

SMILES: Cc1cc(CN2C(=O)N(C)C(C)c3ccc(C(=O)NCc4c(F)cc(F)cc4F)cc32)on1 (stereo not given)
Activity [27]: 6%

SMILES: CC1c2ccc(C(=O)NCc3c(F)cc(F)cc3F)cc2N(Cc2c(F)cccc2S(C)(=O)=O)C(=O)N1C (stereo not given)
Activity ([3]; filed as agonist): 61%

SMILES: Cc1ccc(F)c(CN2C(=O)N(C)C(C)c3ccc(C(=O)NCc4c(F)cc(F)cc4F)cc32)n1 (stereo not given)
Activity ([3]; filed as agonist): 60%

SMILES: Cc1cc(CN2C(=O)N(C)C(C)c3ccc(C(=O)NCc4c(F)cc(F)cc4F)cc32)no1 (stereo not given)
Activity [27]: 6%

SMILES: C[C@H]1c2ccc(C(=O)NCc3c(F)cc(F)cc3F)cc2N(Cc2c(Cl)c[nH]c(=O)c2F)C(=O)N1C
Activity [2]: 16%

SMILES: Cn1cnc(N2Cc3ccc(C(=O)NCc4c(F)cc(F)cc4F)cc3N(Cc3c(F)cccc3Cl)C2=O)c1
Activity [2]: inactive

SMILES: CN1Cc2ccc(C(=O)NCc3c(F)cc(F)cc3F)cc2N(Cc2cn(C)cn2)C1=O
Activity [2]: 7%

SMILES: Cc1cc(CN2C(=O)N(C)Cc3ccc(C(=O)NCc4c(F)cc(F)cc4F)cc32)nn1C
Activity [2]: 14%

SMILES: Cc1nc(CN2C(=O)N(C)Cc3ccc(C(=O)NCc4c(F)cc(F)cc4F)cc32)co1
Activity [2]: 13%

SMILES: CC1c2ccc(C(=O)NCc3c(F)cc(F)cc3F)cc2N(Cc2ccccc2)C(=O)N1C (racemic)
Activity ([27]; filed as agonist): 74%
Activity ([3]; filed as agonist): 73%

SMILES: CN1Cc2ccc(C(=O)NCc3cnc(-c4ccccc4)s3)cc2N(Cc2c(F)cccc2Cl)C1=O
Activity [2]: inactive

SMILES: CN1Cc2ccc(C(=O)NCc3cccc(N4CCCC4=O)c3)cc2N(Cc2c(F)cccc2Cl)C1=O
Activity [2]: inactive

SMILES: CN1Cc2ncc(C(=O)NCc3c(F)cc(F)cc3F)cc2N(Cc2cc(F)cc(F)c2)C1=O
Activity [2]: 19%

SMILES: Cc1ccc(CNC(=O)c2ccc3c(c2)N(Cc2cc(F)cc(F)c2)C(=O)N(C)C3)o1
Activity [2]: 16%

SMILES: Cc1cc(CN2C(=O)N(C)C(C)c3ccc(C(=O)NCc4c(F)cc(F)cc4F)cc32)ccn1 (racemic)
Activity ([2]; filed as agonist): 61%

SMILES: CN1Cc2ccc(C(=O)NCc3cccc(-c4ncco4)c3)cc2N(Cc2c(F)cccc2Cl)C1=O
Activity [2]: inactive

SMILES: CN1Cc2ccc(C(=O)NCc3ccc(C(F)(F)F)nc3)cc2N(Cc2c(F)cccc2Cl)C1=O
Activity [2]: inactive

SMILES: O=C(NCc1c(F)cc(F)cc1F)c1ccc2c(c1)N(Cc1c(F)cccc1Cl)C(=O)N(O)C2
Activity [2]: 8%

SMILES: CC1c2ccc(C(=O)NCc3c(F)cc(F)cc3F)cc2N(Cc2ccccc2F)C(=O)N1C (stereo not given)
Activity ([27]; filed as agonist): 54%

SMILES: CN1Cc2ccc(C(=O)NCc3c(F)cc(F)cc3F)cc2N(Cc2ccnn2C)C1=O
Activity [2]: 7%

SMILES: CN1Cc2ccc(C(=O)NCc3c(F)cc(F)cc3F)cc2N(Cc2cn3ccccc3n2)C1=O
Activity [2]: 16%
